The values below come from patent US20220289698A1, “INHIBITORS OF HUMAN ATGL” (Karl-Franzens-Universität Graz, priority 2019, published 2022).

For one assay, the target named is T1, mMGL (Mus musculus, UniProt O35678).
T1 construct: made in house; host or cells: E. coli (lysate)
T1 sequence (O35678 1-303): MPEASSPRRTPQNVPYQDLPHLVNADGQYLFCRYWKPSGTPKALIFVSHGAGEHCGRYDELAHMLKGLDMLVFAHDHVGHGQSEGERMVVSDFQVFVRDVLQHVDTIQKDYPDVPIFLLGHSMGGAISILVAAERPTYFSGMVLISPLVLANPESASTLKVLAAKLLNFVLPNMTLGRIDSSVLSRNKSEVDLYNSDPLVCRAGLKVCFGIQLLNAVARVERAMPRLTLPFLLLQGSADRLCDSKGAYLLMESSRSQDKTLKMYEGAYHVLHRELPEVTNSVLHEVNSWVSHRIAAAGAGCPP
In words: mMGL off-target inhibition. Format: biochemical. The following applies: read-out: mMGL off-target inhibition [% inhibition at 100 μM]. Here is the method:
Lysates from E. coli expressing mMGL were treated with 100 μM Inhibitors and incubated with 1 mM rac-OG substrate for 10 min. Enzyme activity was measured using the Free Glycerol Reagent. Samples measured in triplicates.

In assay [1] the test system is differentiated SGBS adipocytes. Description: Isoproterenol-stimulated lipolysis in differentiated SGBS adipocytes. Format: cell-based. The following applies: Homo sapiens, 2 h pretreatment, 1 μM isoproterenol 1 h. How it is done: Human differentiated SGBS adipocytes were pretreated with DMSO or ATGL inhibitors for 2 h. Subsequently, lipolysis was stimulated with 1 μM Isoproterenol for 1 h and fatty acid release was determined from media via NEFA Reagent (Wako Diagnostics). Samples were measured in triplicates.
Human differentiated SGBS adipocytes were pretreated with DMSO or ATGL inhibitors for 2 h. Subsequently, lipolysis was stimulated with 1 μM Isoproterenol for 1 h and glycerol release was determined from media via Free glycerol reagent (Sigma Aldrich). Samples were measured in triplicates.

Another assay addresses T2, hPNPLA9 (Homo sapiens, UniProt O60733).
T2 construct: made in house; host or cells: Expi cells (lysate)
T2 sequence (O60733 1-806): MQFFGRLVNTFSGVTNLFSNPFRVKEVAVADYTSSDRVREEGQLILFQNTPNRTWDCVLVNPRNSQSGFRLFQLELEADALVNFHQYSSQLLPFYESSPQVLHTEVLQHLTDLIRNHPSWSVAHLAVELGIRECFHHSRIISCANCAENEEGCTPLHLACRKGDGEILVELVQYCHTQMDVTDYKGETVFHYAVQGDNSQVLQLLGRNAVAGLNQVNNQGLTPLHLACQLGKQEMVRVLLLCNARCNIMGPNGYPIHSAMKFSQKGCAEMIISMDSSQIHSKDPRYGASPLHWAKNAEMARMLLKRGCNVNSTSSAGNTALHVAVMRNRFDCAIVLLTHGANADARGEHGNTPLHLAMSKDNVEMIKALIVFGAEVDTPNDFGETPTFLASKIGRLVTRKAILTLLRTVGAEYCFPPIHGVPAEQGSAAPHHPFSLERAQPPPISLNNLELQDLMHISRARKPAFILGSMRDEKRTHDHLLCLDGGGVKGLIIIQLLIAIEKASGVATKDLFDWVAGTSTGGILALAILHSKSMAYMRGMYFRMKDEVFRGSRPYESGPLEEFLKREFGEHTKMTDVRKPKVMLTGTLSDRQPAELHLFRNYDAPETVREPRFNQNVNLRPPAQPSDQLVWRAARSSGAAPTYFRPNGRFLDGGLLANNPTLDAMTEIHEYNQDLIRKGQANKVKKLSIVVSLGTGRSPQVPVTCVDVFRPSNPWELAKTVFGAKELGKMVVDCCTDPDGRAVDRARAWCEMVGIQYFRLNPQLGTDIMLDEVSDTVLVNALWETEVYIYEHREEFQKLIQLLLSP
In words: hPNPLA9 off-target inhibition. Format: biochemical. As to conditions: read-out: hPNPLA9 off-target inhibition [% inhibition at 100 μM]. Here is the method:
Expi lysates expressing hPNPLA9 were treated with 100 μM Inhibitors and incubated with 1 mM C8 monoacylglycerol substrate (containing 5 mM CHAPS, 50 mM NaPh buffer ph7.4, 0.15 M NaCl) for 40 min. Glycerol release was determined via Free glycerol reagent (Sigma Aldrich). Samples measured in triplicates, […]

The next assay addresses T3, rat ATGL (Rattus norvegicus, UniProt P0C548).
T3 construct: made in house; host or cells: Expi cells (lysate)
T3 sequence (P0C548 1-478): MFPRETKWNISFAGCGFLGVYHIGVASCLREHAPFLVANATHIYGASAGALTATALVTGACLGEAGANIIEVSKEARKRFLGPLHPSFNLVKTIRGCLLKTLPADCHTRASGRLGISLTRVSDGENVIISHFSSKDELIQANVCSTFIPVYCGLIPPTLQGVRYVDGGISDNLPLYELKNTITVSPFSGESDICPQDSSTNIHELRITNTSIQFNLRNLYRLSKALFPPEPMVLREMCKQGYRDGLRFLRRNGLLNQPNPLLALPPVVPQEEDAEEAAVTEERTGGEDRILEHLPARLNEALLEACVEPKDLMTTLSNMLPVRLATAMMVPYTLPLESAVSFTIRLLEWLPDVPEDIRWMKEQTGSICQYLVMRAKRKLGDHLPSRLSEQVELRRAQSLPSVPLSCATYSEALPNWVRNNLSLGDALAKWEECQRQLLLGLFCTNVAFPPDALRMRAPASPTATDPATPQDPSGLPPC
Description: Rat ATGL inhibition, Expi lysates + CGI-58. Format: biochemical. Here is the method:
Lysates from Expi cells overexpressing ATGL from rat (Rattus norvegicus) were incubated with recombinant purified ATGL co-activator CGI-58 and ATGL inhibitors at 50 μM. Subsequently, substrate containing radiolabeled triolein was added and liberated FA were extracted and quantified by liquid scintillation. Inhibitors were dissolved in DMSO which was used as control. Samples were measured in triplicates.

The next assay deals with pig vWAT. Description: Pig vWAT inhibition, visceral adipose tissue lysates + CGI-58. Format: biochemical. How it is done: Lysates from visceral adipose tissue of pigs (Sus scrofa) were incubated with recombinant purified ATGL co-activator CGI-58 and ATGL inhibitors at 50 μM. Subsequently, substrate containing radiolabeled triolein was added and liberated FA were extracted and quantified by liquid scintillation. Inhibitors were dissolved in DMSO which was used as control. Samples were measured in triplicates.

The test system of a further assay is rhesus monkey ATGL. Description: Rhesus monkey ATGL inhibition, Expi lysates + CGI-58. Format: biochemical. How it is done: Lysates from Expi cells overexpressing ATGL from rhesus monkeys (Macaca mulatta) were incubated with recombinant purified ATGL co-activator CGI-58 and ATGL inhibitors at 50 μM. Subsequently, substrate containing radiolabeled triolein was added and liberated FA were extracted and quantified by liquid scintillation. Inhibitors were dissolved in DMSO which was used as control. Samples were measured in triplicates.

For the next assay, the system named is goat ATGL. Description: Goat ATGL inhibition, Expi lysates + CGI-58. Format: biochemical. How it is done: Lysates from Expi cells overexpressing ATGL from goat (Capra hircus) were incubated with recombinant purified ATGL co-activator CGI-58 and ATGL inhibitors at 50 μM. Subsequently, substrate containing radiolabeled triolein was added and liberated FA were extracted and quantified by liquid scintillation. Inhibitors were dissolved in DMSO which was used as control. Samples were measured in triplicates.

Setting [2] is: fatty acid release, read-out: IC50 SGBS FA release.
Setting [3] is: glycerol release, read-out: IC50 SGBS glycerol release.

SMILES strings stand for the structures. Like-named read-outs stand apart in the source and are kept apart here.

`CCOc1ccc(-c2cc(OC)cc(C(=O)OC(C)C)n2)cc1` [Example 35]: the inhibition at 100 µM on mMGL and at hPNPLA9 was 0% in each case. Besides, the IC50 is 1000 nM in assay [1] (setting [2]) and 2000 nM in assay [1] (setting [3]).
Turning to `CCOc1ccc(-c2nc(C(=O)OCc3cccs3)cs2)cc1` [Example 152, Thiophen-2-ylmethyl 2-(4-ethoxyphenyl)thiazole-4-carboxylate], on rat ATGL, the inhibition at 50 µM came to 10%. For the same molecule, the “pig vWAT inhibition [% inhibition at 50 μM” value with pig vWAT is given as 0%. Besides, in the assay on rhesus monkey ATGL, the “rhesus monkey ATGL inhibition [% inhibition at 50 μM]” value amounted to 10%. Further, the inhibition at 100 µM on hPNPLA9 worked out at 0%. The “goat ATGL inhibition [% inhibition at 50 μM” value with goat ATGL was 0%.
`CCOc1ccc(-c2cccc(C(=O)OCc3cccs3)n2)cc1` [Example 189, Thiophen-2-ylmethyl 6-(4-ethoxyphenyl)picolinate]: the inhibition at 50 µM on rat ATGL was determined as 10%. For the same molecule, the “pig vWAT inhibition [% inhibition at 50 μM” value in the assay on pig vWAT amounted to 15%. For the same molecule, the inhibition at 100 µM at mMGL and on hPNPLA9 was 0% each time. The “rhesus monkey ATGL inhibition [% inhibition at 50 μM]” value with rhesus monkey ATGL came out at 70%. In addition, the “goat ATGL inhibition [% inhibition at 50 μM” value in the assay with goat ATGL was 50%.
With `CCOc1ccc(-c2cccc(C(=O)OCc3ccco3)n2)cc1` [Example 190, Furan-2-ylmethyl 6-(4-ethoxyphenyl)picolinate], the inhibition at 50 µM at rat ATGL worked out at 40%. For the same molecule, in the assay on pig vWAT, the “pig vWAT inhibition [% inhibition at 50 μM” value worked out at 0%. Further, the inhibition at 100 µM on mMGL and on hPNPLA9 was 0% each time. Also, the IC50 worked out at 12000 nM in assay [1] (setting [2]) and 25000 nM in assay [1] (setting [3]). Further, the “rhesus monkey ATGL inhibition [% inhibition at 50 μM]” value in the assay with rhesus monkey ATGL was 70%. For the same molecule, in the assay with goat ATGL, the “goat ATGL inhibition [% inhibition at 50 μM” value is given as 25%.
Turning to `COc1cc(C(=O)OC(C)C)nc(-c2ccc(OC(C)C)cc2)c1` [Example 201, Isopropyl 6-(4-isopropoxyphenyl)-4-methoxypicolinate], on rat ATGL, the inhibition at 50 µM came to 0%. Besides, the “pig vWAT inhibition [% inhibition at 50 μM” value with pig vWAT is reported as 0%. Besides, the inhibition at 100 µM at mMGL and on hPNPLA9 was 0% in each case. For the same molecule, the “rhesus monkey ATGL inhibition [% inhibition at 50 μM]” value in the assay on rhesus monkey ATGL turned out to be 95%. For the same molecule, the “goat ATGL inhibition [% inhibition at 50 μM” value in the assay on goat ATGL is given as 0%.
As for `CC#CCOC(=O)c1csc(-c2ccc(OCC)cc2)n1` [Example 209, But-2-yn-1-yl 2-(4-ethoxyphenyl)thiazole-4-carboxylate], at rat ATGL, the inhibition at 50 µM was determined as 40%. Also, the “pig vWAT inhibition [% inhibition at 50 μM” value in the assay with pig vWAT came to 0%. Also, the inhibition at 100 µM on mMGL and on hPNPLA9 was 0% each time. For the same molecule, in the assay with rhesus monkey ATGL, the “rhesus monkey ATGL inhibition [% inhibition at 50 μM]” value came to 70%. Also, the “goat ATGL inhibition [% inhibition at 50 μM” value with goat ATGL was 25%.
In the case of `C#C[C@H](C)OC(=O)c1csc(-c2ccc(OCC)cc2)n1` [Example 210, (S)-But-3-yn-2-yl 2-(4-ethoxyphenyl)thiazole-4-carboxylate], the inhibition at 50 µM on rat ATGL is 15%. In addition, the “pig vWAT inhibition [% inhibition at 50 μM” value in the assay on pig vWAT is listed as 5%. The inhibition at 100 µM at mMGL and on hPNPLA9 was 0% throughout. Moreover, the values for the 50% inhibitory concentration (IC50) in assay [1] (setting [2]) and in assay [1] (setting [3]) were 600 nM and 1000 nM, respectively. Moreover, the “rhesus monkey ATGL inhibition [% inhibition at 50 μM]” value in the assay on rhesus monkey ATGL was found to be 90%. For the same molecule, in the assay with goat ATGL, the “goat ATGL inhibition [% inhibition at 50 μM” value came out at 20%.
Regarding `C#C[C@@H](C)OC(=O)c1csc(-c2ccc(OCC)cc2)n1` [Example 211, (R)-But-3-yn-2-yl 2-(4-ethoxyphenyl)thiazole-4-carboxylate], at rat ATGL, the inhibition at 50 µM worked out at 50%. For the same molecule, the “pig vWAT inhibition [% inhibition at 50 μM” value in the assay with pig vWAT turned out to be 5%. Moreover, the inhibition at 100 µM on mMGL and at hPNPLA9 was 0% in each case. In addition, the IC50 in assay [1] (setting [2]) and in assay [1] (setting [3]) was 900 nM in each case. Besides, in the assay with rhesus monkey ATGL, the “rhesus monkey ATGL inhibition [% inhibition at 50 μM]” value is listed as 100%. The “goat ATGL inhibition [% inhibition at 50 μM” value in the assay on goat ATGL is on record as 30%.
Take `CCCCOC(=O)c1csc(-c2ccc(OCC)cc2)n1` [Example 212, Butyl 2-(4-ethoxyphenyl)thiazole-4-carboxylate]: at rat ATGL, the inhibition at 50 µM was 40%. The “pig vWAT inhibition [% inhibition at 50 μM” value with pig vWAT worked out at 5%. The inhibition at 100 µM on mMGL and at hPNPLA9 was 0% throughout. Moreover, in the assay on rhesus monkey ATGL, the “rhesus monkey ATGL inhibition [% inhibition at 50 μM]” value was determined as 70%. The “goat ATGL inhibition [% inhibition at 50 μM” value in the assay on goat ATGL stood at 20%.
Take `CCOc1ccc(-c2nc(C(=O)OCc3ccc(Cl)s3)cs2)cc1` [Example 223, (5-Chlorothiophen-2-yl)methyl 2-(4-ethoxyphenyl)thiazole-4-carboxylate]: the inhibition at 50 µM on rat ATGL was 40%. Besides, the “pig vWAT inhibition [% inhibition at 50 μM” value in the assay on pig vWAT turned out to be 15%. Moreover, the inhibition at 100 µM at mMGL and at hPNPLA9 was 0% each time. Also, the “rhesus monkey ATGL inhibition [% inhibition at 50 μM]” value with rhesus monkey ATGL was 65%. Also, the “goat ATGL inhibition [% inhibition at 50 μM” value in the assay with goat ATGL turned out to be 40%.
Consider `CCOc1ccc(-c2nc(C(=O)OCc3ccc(Br)s3)cs2)cc1` [Example 224, (5-Bromothiophen-2-yl)methyl 2-(4-ethoxyphenyl)thiazole-4-carboxylate], for which, at rat ATGL, the inhibition at 50 µM was 40%. For the same molecule, in the assay with pig vWAT, the “pig vWAT inhibition [% inhibition at 50 μM” value was determined as 15%. The inhibition at 100 µM worked out at 70% at mMGL and 0% at hPNPLA9. Moreover, the “rhesus monkey ATGL inhibition [% inhibition at 50 μM]” value in the assay on rhesus monkey ATGL amounted to 70%. In the assay on goat ATGL, the “goat ATGL inhibition [% inhibition at 50 μM” value was found to be 40%.

By inhibition is commonly meant the percentage by which the read-out fell short of the control. By IC50 is commonly meant the point on the concentration scale where inhibition reaches its midpoint.
